Converted amounts (≈) assume the structure as drawn.
Legend:
Assay in all cases: antimicrobial activity, broth dilution method
Type in all cases: cell-based
[1] = test system: Bacillus cereus ATCC 9634; conditions: broth dilution; for MIC: Bacillus cereus, ATCC9634, Bacillus cereus ATCC 9634, read-out: minimum inhibitory concentration (MIC); for minimum inhibitory concentration (MIC): Bacillus cereus ATCC 9634
Experimental: (§1) Antimicrobial activity of the new antibiotics according to the present invention was measured on various pathogenic microorganisms by the broth dilution mehtod. Tab. […] The new antibiotics show a similar antimicrobial spectrum to that of tylosin as shown in Tab. 4. All the compounds have an excellent antimicrobial activity mainly on gram-positive bacteria. […] Test microorganisms with an asterisk mark (*) in Tab. 4 are all drug-resistant strains that were clinically isolated. More in detail, Staphylococcus aureus MS-8710 is resistant to tylosin, penicillin, tetracycline, erythromycin and leucomycin. Staphylococcus aureus MS-9931 is resistant to tylosin, penicillin, erythromycin, tetracycline, leucomycin, spiramycin and josamycin. And also Streptococcus piogenes is resistant to tylosin, erythromycin, oleandomycin and leucomycin.

Sarcina lutea ATCC 9341 = conditions: for MIC: Micrococcus luteus, ATCC9341, Sarcina lutea ATCC 9341, read-out: minimum inhibitory concentration (MIC); for minimum inhibitory concentration (MIC): Sarcina lutea ATCC 9341
Experimental: as §1

[2] = test system: Staphylococcus aureus FDA-209P; conditions: Staphylococcus aureus FDA-209P, broth dilution; for MIC: Staphylococcus aureus, FDA209P, read-out: minimum inhibitory concentration (MIC)
Experimental: as §1

[3] = test system: Staphylococcus aureus MS-8710; conditions: for MIC: Staphylococcus aureus, MS8710, Staphylococcus aureus MS-8710, drug-resistant clinical isolate, read-out: minimum inhibitory concentration (MIC); for minimum inhibitory concentration (MIC): Staphylococcus aureus MS-8710, drug-resistant clinical isolate
Experimental: as §1

[4] = test system: Staphylococcus aureus MS-9931; conditions: Staphylococcus aureus MS-9931, drug-resistant clinical isolate; for MIC: MS9931, read-out: minimum inhibitory concentration (MIC)
Experimental: as §1

[5] = test system: Staphylococcus aureus MS-9937; conditions: Staphylococcus aureus MS-9937, drug-resistant clinical isolate; for MIC: MS9937, read-out: minimum inhibitory concentration (MIC)
Experimental: as §1

[6] = test system: Staphylococcus aureus SMITH; conditions: Staphylococcus aureus SMITH, broth dilution; for MIC: Staphylococcus aureus, read-out: minimum inhibitory concentration (MIC)
Experimental: as §1

[7] = test system: Streptococcus pyogenes MH-771; conditions: for MIC: Streptococcus pyogenes, MH771, Streptococcus pyogenes MH-771, drug-resistant clinical isolate, read-out: minimum inhibitory concentration (MIC); for minimum inhibitory concentration (MIC): Streptococcus pyogenes MH-771, drug-resistant clinical isolate
Experimental: as §1

Compound | MIC [1] [µg/mL] | MIC (Sarcina lutea ATCC 9341) [µg/mL] | MIC [2] [µg/mL] | MIC [3] [µg/mL] | MIC [4] [µg/mL] | MIC [5] [µg/mL] | MIC [6] [µg/mL] | MIC [7] [µg/mL] | minimum inhibitory concentration (MIC) [1] [µg/mL] | minimum inhibitory concentration (MIC) (Sarcina lutea ATCC 9341) [µg/mL] | minimum inhibitory concentration (MIC) [2] [µg/mL] | minimum inhibitory concentration (MIC) [3] [µg/mL] | minimum inhibitory concentration (MIC) [4] [µg/mL] | minimum inhibitory concentration (MIC) [5] [µg/mL] | minimum inhibitory concentration (MIC) [6] [µg/mL] | minimum inhibitory concentration (MIC) [7] [µg/mL]
CCC1OC(=O)CC(OC(C)=O)C(C)C(OC2OC(C)C(OC3CC(C)(O)C(OC(=O)COc4ccccc4)C(C)O3)C(N(C)C)C2O)C(CC=O)CC(C)C(=O)C=CC(C)=CC1COC1OC(C)C(O)C(OC)C1OC (stereo not shown) [Compound 45, 3-acetyl-4"-phenoxyacetyltylosin] | 0.39 (≈ 0.357 µM) | 0.19 (≈ 0.174 µM) | 0.39 (≈ 0.357 µM) | 100 (≈ 91.6 µM) | 25 (≈ 22.9 µM) | 25 (≈ 22.9 µM) | 0.39 (≈ 0.357 µM) | 12.5 (≈ 11.4 µM) |  |  |  |  |  |  |  | 
CCC1OC(=O)CC(O)C(C)C(OC2OC(C)C(OC3CC(C)(O)C(OC(=O)Cc4cccc5ccccc45)C(C)O3)C(N(C)C)C2O)C(CC=O)CC(C)C(=O)C=CC(C)=CC1COC1OC(C)C(O)C(OC)C1OC (stereo not drawn) [Compound 22, 4"-α-naphthylacetyltylosin] | 1.56 (≈ 1.44 µM) | 0.39 (≈ 0.36 µM) | 1.56 (≈ 1.44 µM) | 12.5 (≈ 11.5 µM) | 25 (≈ 23.1 µM) | 25 (≈ 23.1 µM) | 1.56 (≈ 1.44 µM) | 50 (≈ 46.1 µM) |  |  |  |  |  |  |  | 
CCC1OC(=O)CC(O)C(C)C(OC2OC(C)C(OC3CC(C)(O)C(OC(=O)C(C)Oc4ccccc4)C(C)O3)C(N(C)C)C2O)C(CC=O)CC(C)C(=O)C=CC(C)=CC1COC1OC(C)C(O)C(OC)C1OC (stereo not drawn) [Compound 46, 4"-α-phenoxypropionyltylosin] | 0.39 (≈ 0.366 µM) | 0.19 (≈ 0.179 µM) | 0.78 (≈ 0.733 µM) | 25 (≈ 23.5 µM) | 25 (≈ 23.5 µM) | 50 (≈ 47 µM) | 0.39 (≈ 0.366 µM) | 12.5 (≈ 11.7 µM) |  |  |  |  |  |  |  | 
CCC1OC(=O)CC(OC(C)=O)C(C)C(OC2OC(C)C(OC3CC(C)(O)C(OC(=O)CCc4ccccc4)C(C)O3)C(N(C)C)C2O)C(CC=O)CC(C)C(=O)C=CC(C)=CC1COC1OC(C)C(O)C(OC)C1OC (stereo not drawn) [Compound 25, 3-acetyl-4"-β-phenylpropionyltylosin] | 0.78 (≈ 0.715 µM) | 0.39 (≈ 0.358 µM) | 1.56 (≈ 1.43 µM) | 50 (≈ 45.9 µM) | 50 (≈ 45.9 µM) | 50 (≈ 45.9 µM) | 0.78 (≈ 0.715 µM) | 25 (≈ 22.9 µM) |  |  |  |  |  |  |  | 
CCC1OC(=O)CC(O)C(C)C(OC2OC(C)C(OC3CC(C)(O)C(OC(=O)CCC(C)C)C(C)O3)C(N(C)C)C2O)C(CC=O)CC(C)C(=O)C=CC(C)=CC1COC1OC(C)C(O)C(OC)C1OC (stereo not shown) [Compound 11, 4"-iso-caproyl(or iso-hexanoyl)tylosin] | 0.78 (≈ 0.769 µM) | 0.39 (≈ 0.385 µM) | 0.78 (≈ 0.769 µM) | 12.5 (≈ 12.3 µM) | 12.5 (≈ 12.3 µM) | 12.5 (≈ 12.3 µM) | 0.78 (≈ 0.769 µM) | 6.25 (≈ 6.16 µM) |  |  |  |  |  |  |  | 
CCC1OC(=O)CC(OC(C)=O)C(C)C(OC2OC(C)C(OC3CC(C)(O)C(OC(=O)C(OC(C)=O)c4ccccc4)C(C)O3)C(N(C)C)C2O)C(CC=O)CC(C)C(=O)C=CC(C)=CC1COC1OC(C)C(O)C(OC)C1OC [Compound 20, 3-acetyl-4"-L-(α-acetoxyphenylacetyl)tylosin] |  |  |  |  |  |  |  |  | 1.56 (≈ 1.38 µM) | 0.39 (≈ 0.344 µM) | 0.78 (≈ 0.688 µM) | 50 (≈ 44.1 µM) | 100 (≈ 88.2 µM) | 100 (≈ 88.2 µM) | 1.56 (≈ 1.38 µM) | 12.5 (≈ 11 µM)
CCC1OC(=O)CC(OC(C)=O)C(C)C(OC2OC(C)C(OC3CC(C)(O)C(OC(=O)C(O)c4ccccc4)C(C)O3)C(N(C)C)C2O)C(CC=O)CC(C)C(=O)C=CC(C)=CC1COC1OC(C)C(O)C(OC)C1OC [Compound 18, 3-acetyl-4"-L-(α-hydroxyphenylacetyl)tylosin] | 0.78 (≈ 0.714 µM) | 0.39 (≈ 0.357 µM) | 0.78 (≈ 0.714 µM) | 25 (≈ 22.9 µM) |  |  | 0.78 (≈ 0.714 µM) |  |  |  |  |  |  |  |  | 
CCC1OC(=O)CC(O)C(C)C(OC2OC(C)C(OC3CC(C)(O)C(OC(=O)CSc4cccc(C)c4)C(C)O3)C(N(C)C)C2O)C(CC=O)CC(C)C(=O)C=CC(C)=CC1COC1OC(C)C(O)C(OC)C1OC (stereo not shown) [Compound 36, 4"-(3-methylphenyl)thioacetyltylosin] | 0.78 (≈ 0.722 µM) | 0.39 (≈ 0.361 µM) | 0.78 (≈ 0.722 µM) | 25 (≈ 23.1 µM) | 50 (≈ 46.3 µM) | 50 (≈ 46.3 µM) | 0.78 (≈ 0.722 µM) | 25 (≈ 23.1 µM) |  |  |  |  |  |  |  | 
CCC1OC(=O)CC(O)C(C)C(OC2OC(C)C(OC3CC(C)(O)C(OC(=O)COc4ccc5ccccc5c4)C(C)O3)C(N(C)C)C2O)C(CC=O)CC(C)C(=O)C=CC(C)=CC1COC1OC(C)C(O)C(OC)C1OC (stereo not drawn) [Compound 47, 4"-β-napthoxyacetyltylosin] | 0.78 (≈ 0.709 µM) | 0.19 (≈ 0.173 µM) | 0.78 (≈ 0.709 µM) | 25 (≈ 22.7 µM) | 25 (≈ 22.7 µM) | 25 (≈ 22.7 µM) | 0.78 (≈ 0.709 µM) | 12.5 (≈ 11.4 µM) |  |  |  |  |  |  |  | 
CCCCCCCCCC(=O)OC1C(C)OC(OC2C(C)OC(OC3C(CC=O)CC(C)C(=O)C=CC(C)=CC(COC4OC(C)C(O)C(OC)C4OC)C(CC)OC(=O)CC(O)C3C)C(O)C2N(C)C)CC1(C)O (stereo not shown) [Compound 10, 4"-n-capryl(or n-decanoyl)tylosin] | 1.56 (≈ 1.46 µM) | 0.78 (≈ 0.729 µM) | 1.56 (≈ 1.46 µM) | 100 (≈ 93.4 µM) | 50 (≈ 46.7 µM) | 100 (≈ 93.4 µM) | 1.56 (≈ 1.46 µM) | 50 (≈ 46.7 µM) |  |  |  |  |  |  |  | 
CCC1OC(=O)CC(OC(C)=O)C(C)C(OC2OC(C)C(OC3CC(C)(O)C(OC(=O)Cc4cccc5ccccc45)C(C)O3)C(N(C)C)C2O)C(CC=O)CC(C)C(=O)C=CC(C)=CC1COC1OC(C)C(O)C(OC)C1OC (stereo not drawn) [Compound 23, 3-acetyl-4"-α-naphthylacetyltylosin] | 0.78 (≈ 0.693 µM) | 0.39 (≈ 0.346 µM) | 0.78 (≈ 0.693 µM) | 25 (≈ 22.2 µM) | 25 (≈ 22.2 µM) | 50 (≈ 44.4 µM) | 0.78 (≈ 0.693 µM) | 25 (≈ 22.2 µM) |  |  |  |  |  |  |  | 
CCC1OC(=O)CC(OC(C)=O)C(C)C(OC2OC(C)C(OC3CC(C)(O)C(O)C(C)O3)C(N(C)C)C2OC(C)=O)C(CC=O)CC(C)C(=O)C=CC(C)=CC1COC1OC(C)C(O)C(OC)C1OC (stereo not shown) [3,2'-diacetyltylosin, reference compound] | 1.56 (≈ 1.56 µM) | 0.39 (≈ 0.39 µM) | 1.56 (≈ 1.56 µM) | > 200 | 200 (≈ 200 µM) | 200 (≈ 200 µM) | 1.56 (≈ 1.56 µM) | > 200 |  |  |  |  |  |  |  | 
CCC1OC(=O)CC(O)C(C)C(OC2OC(C)C(OC3CC(C)(O)C(OC(=O)CSc4ccc(C)cc4)C(C)O3)C(N(C)C)C2O)C(CC=O)CC(C)C(=O)C=CC(C)=CC1COC1OC(C)C(O)C(OC)C1OC (stereo not shown) [Compound 35, 4"-(4-methylphenyl)thioacetyltylosin] | 1.56 (≈ 1.44 µM) | 0.78 (≈ 0.722 µM) | 1.56 (≈ 1.44 µM) | 25 (≈ 23.1 µM) | 25 (≈ 23.1 µM) | 50 (≈ 46.3 µM) | 1.56 (≈ 1.44 µM) | 12.5 (≈ 11.6 µM) |  |  |  |  |  |  |  | 
CCC1OC(=O)CC(O)C(C)C(OC2OC(C)C(OC3CC(C)(O)C(OC(=O)CCSc4ccccc4)C(C)O3)C(N(C)C)C2O)C(CC=O)CC(C)C(=O)C=CC(C)=CC1COC1OC(C)C(O)C(OC)C1OC (stereo not drawn) [Compound 39, 4"-β-phenylthiopropionyltylosin] | 0.39 (≈ 0.361 µM) | 0.19 (≈ 0.176 µM) | 0.78 (≈ 0.722 µM) | 12.5 (≈ 11.6 µM) | 12.5 (≈ 11.6 µM) | 12.5 (≈ 11.6 µM) | 0.39 (≈ 0.361 µM) | 6.25 (≈ 5.79 µM) |  |  |  |  |  |  |  | 
CCC1OC(=O)CC(O)C(C)C(OC2OC(C)C(OC3CC(C)(O)C(OC(=O)Cc4ccc([N+](=O)[O-])cc4)C(C)O3)C(N(C)C)C2O)C(CC=O)CC(C)C(=O)C=CC(C)=CC1COC1OC(C)C(O)C(OC)C1OC (stereo not shown) [Compound 14, 4"-(4-nitrophenyl)acetyltylosin] | 0.39 (≈ 0.361 µM) | 0.19 (≈ 0.176 µM) | 0.39 (≈ 0.361 µM) | 6.25 (≈ 5.79 µM) | 6.25 (≈ 5.79 µM) | 6.25 (≈ 5.79 µM) | 0.39 (≈ 0.361 µM) | 3.13 (≈ 2.9 µM) |  |  |  |  |  |  |  | 
CCCCCC(=O)OC1C(C)OC(OC2C(C)OC(OC3C(CC=O)CC(C)C(=O)C=CC(C)=CC(COC4OC(C)C(O)C(OC)C4OC)C(CC)OC(=O)CC(O)C3C)C(O)C2N(C)C)CC1(C)O (stereo not shown) [Compound 7, 4"-n-caproyl(or n-hexanoyl)tylosin] | 0.78 (≈ 0.769 µM) | 0.39 (≈ 0.385 µM) | 0.78 (≈ 0.769 µM) | 12.5 (≈ 12.3 µM) | 25 (≈ 24.6 µM) | 12.5 (≈ 12.3 µM) | 0.78 (≈ 0.769 µM) | 6.25 (≈ 6.16 µM) |  |  |  |  |  |  |  | 
3-acetyl-4"-(1-imidazolyl)propionyltylosin [Compound 33] |  |  |  |  |  |  |  |  | 1.56 | 0.78 | 1.56 | 25 | 50 | 50 | 1.56 | 12.5
